# Reference: patent US20070003987A1, “Screening method for substance binding to merozoite surface protein-1/42” (priority 2003, published 2007)
# Tests used:
# [1] = target: T1, P. falciparum MSP142 (Plasmodium falciparum, UniProt Q8I0U8); experiment: binding of suramin to MSP1 by fluorimetry
# T1 construct: was used to express a His6-tagged MSP142 protein; His6; made in house; host or cells: E. coli BL21 (DE3)
# Experimental: The pETATPf MSP142 plasmid (described by Angov et al, 2003 Mol. Biochem. Parasitol. 128, 195-204) was used to express a His6-tagged MSP142 protein (P. falciparum 3D7 clone, Accession Number Z35327). The DNA was used to transform E. coli BL21 (DE3) cells and then clones were selected on plates of agar containing ampicillin. Cells expressing the modified MSP142 were grown to mid log phase (OD6000.5-0.8) at 37° C., then after the incubation temperature had been reduced to 25° C., the protein expression was induced by addition of 0.1 mM IPTG. After 2 h of further growth the bacterial cells were harvested by centrifugation. The resulting cell paste was resuspended in lysis buffer (10 mM sodium phosphate, 50 mM NaCl, 10 mM imidazole, pH 6.2) and lysed by microfluidization. […]
# The intrinsic fluorescence of suramin was used to determine its capacity to bind to the various MSP1-derived proteins. The fluorescence was measured using a Perkin Elmer LS-3B or a Spex Fluoro Max 2 fluorimeter. Suramin was excited at a wavelength of 315 or 330 nm with 2.5 nm resolution, the emission spectra were measured at wavelengths ranging from 350-450 nm. Suramin and the MSP1 proteins were diluted in 20 mM NaH2PO4, 150 mM NaCl at pH 7.2 and analysed at 10 or 20° C. […] The Kd for the suramin-MSP1 binding was determined from three independent experiments. […]
# [2] = test system: P. vivax MSP142; experiment: binding of suramin by fluorimetry
# Text: The MSP142 protein from P. vivax was cloned into plasmid jmp28, a modified pET-28 vector that encodes an N-terminal peptide MHHHHHHIEGRWIL immediately upstream of the inserted sequence. P. vivax (Belem strain) DNA was used as a template for PCR based cloning. The sequence of the expressed protein (following the vector encoded N-terminal peptide) corresponded to residues Asp 1325 to Ser 1704, Accession number A39401.
# The protein was expressed in BL21(DE3)pLysS cells by induction of a culture at an OD600 of 0.6-0.8 with IPTG at a final concentration of 1 mM. The cells were induced for 3 h at 37° C. and then harvested by centrifugation. […]
# The intrinsic fluorescence of suramin was used to determine its capacity to bind to the various MSP1-derived proteins. The fluorescence was measured using a Perkin Elmer LS-3B or a Spex Fluoro Max 2 fluorimeter. Suramin was excited at a wavelength of 315 or 330 nm with 2.5 nm resolution, the emission spectra were measured at wavelengths ranging from 350-450 nm. Suramin and the MSP1 proteins were diluted in 20 mM NaH2PO4, 150 mM NaCl at pH 7.2 and analysed at 10 or 20° C. […] The Kd for the suramin-MSP1 binding was determined from three independent experiments.
# [3] = target: MSP142 (Plasmodium falciparum, UniProt Q8I0U8); experiment: inhibition of suramin binding (fluorescence, 384-well plate); conditions: λex 320 nm/λem 405 nm
# Sequence of MSP142 (Q8I0U8 1327-1699): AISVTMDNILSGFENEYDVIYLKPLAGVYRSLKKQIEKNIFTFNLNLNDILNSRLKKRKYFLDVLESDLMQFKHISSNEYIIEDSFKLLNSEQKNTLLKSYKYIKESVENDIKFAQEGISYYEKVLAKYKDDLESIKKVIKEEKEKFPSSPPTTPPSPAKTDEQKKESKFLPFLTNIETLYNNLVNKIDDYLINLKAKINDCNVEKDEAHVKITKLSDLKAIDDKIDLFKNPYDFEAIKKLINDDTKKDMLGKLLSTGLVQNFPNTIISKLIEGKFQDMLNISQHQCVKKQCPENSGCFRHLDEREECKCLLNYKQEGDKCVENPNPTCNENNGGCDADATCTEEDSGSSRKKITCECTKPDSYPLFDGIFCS
# Experimental: MSP142 (0.1 mg/ml), 10 μM suramin analogue and 2 μM suramin were combined in a 384-well black polypropylene low binding plate (total reaction volume 100 μL). Fluorescence was read at λex 320 nm/λem 405 nm on a BMG Polarstar fluorimeter. Readings were taken before, and 1 hour after, addition of suramin.
# T1 sequence (Q8I0U8 1327-1699): as above
smiles,measurement,setting,value
Cc1ccc(C(=O)Nc2ccc(S(=O)(=O)O)c3cc(S(=O)(=O)O)cc(S(=O)(=O)O)c23)cc1NC(=O)c1cccc(NC(=O)Nc2cccc(C(=O)Nc3cc(C(=O)Nc4ccc(S(=O)(=O)O)c5cc(S(=O)(=O)O)cc(S(=O)(=O)O)c45)ccc3C)c2)c1 [suramin],Kd,[1],0.22 µM
same,change of suramin emission intensity on binding to MSP142,[1]; excited at 315 nm,pronounced increase in emission intensity
same,enhancement of intrinsic suramin fluorescence on binding,[2],large binding-induced enhancements
same,signal to noise ratio of fluorescence signal,[3],1.8
